Results as given in ChEMBL document CHEMBL3137667, “[Drug-induced liver injury; fourteenth updated edition of the bibliographic database of liver injuries and related drugs]” (Gastroenterol Clin Biol, 2004).

Key:
[1] = human
[2] = Highest frequency of acute liver toxicity observed during clinical trials, expressed as a percentage. [column '% AIGUE' in source]; conditions: human
[3] = human; remark: listed apart in the source
[4] = human; remark: listed apart in the source
[5] = human; remark: listed apart in the source
[6] = human, serum
[7] = human; remark: listed apart in the source
[8] = Highest frequency of moderate liver toxicity observed during clinical trials, expressed as a percentage. [column '% BIOL' in source]; conditions: human
[9] = human; remark: listed apart in the source
[10] = human; remark: listed apart in the source
[11] = human, serum, 4383 h
[12] = human; remark: listed apart in the source
[13] = human, serum; remark: listed apart in the source
[14] = human; remark: listed apart in the source
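Wherever Hepatotoxicity (association with vascular disease) is given: count of indexed literature references reporting vascular liver injury in humans, e.g. peliosis hepatitis, hepatic veno-occlusive disease or Budd-Chiari syndrome.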
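Wherever Hepatotoxicity (benign tumour) is given: value is a count of indexed literature references citing a benign tumour confirmed by histopathology.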
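Wherever Hepatotoxicity (choleostasis) is given: human cholestatic liver injury, shown by histopathology or by peak ALT or AST elevation over alkaline phosphatase ratio below 2, value counts indexed literature reports.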
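Wherever Hepatotoxicity (chronic liver disease) is given: chronic liver injury confirmed by histopathology or persistently raised serum aminotransferase activity beyond 6 months, value given as the count of indexed literature references.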
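Wherever Hepatotoxicity (cirrhosis) is given: value is a count of indexed literature references reporting cirrhosis confirmed by histopathology.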
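Wherever Hepatotoxicity (cytolytic) is given: human cytolytic liver injury, shown by histopathology or by a ratio above 5 of peak ALT or AST elevation to alkaline phosphatase elevation, value counts indexed references.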
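Wherever Hepatotoxicity (granulomatous hepatitis) is given: value is a count of indexed literature references reporting granulomatous liver disease confirmed by histopathology.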
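Wherever Hepatotoxicity (malignant tumour) is given: malignant tumour confirmed by histopathology, value gives the count of indexed literature references reporting it.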
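Wherever Hepatotoxicity (severe hepatitis) is given: human clinical data: severe hepatitis, meaning potentially life-threatening liver failure or clinically observed cases, the value counts how many indexed literature references report it.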
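Wherever Hepatotoxicity (steatosis) is given: steatosis confirmed by histopathology, value is the count of indexed references.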

Molecule | Hepatotoxicity (benign tumour) [1] | Hepatotoxicity (acute) [2] [%] | Hepatotoxicity (cytolytic) [3] | Hepatotoxicity (steatosis) [4] | Hepatotoxicity (association with vascular disease) [5] | Hepatotoxicity (moderate) [6] | Hepatotoxicity (granulomatous hepatitis) [7] | Hepatotoxicity (moderate) [8] [%] | Hepatotoxicity (malignant tumour) [9] | Hepatotoxicity (choleostasis) [10] | Hepatotoxicity (chronic liver disease) [11] | Hepatotoxicity (severe hepatitis) [12] | Hepatotoxicity (acute) [13] | Hepatotoxicity (cirrhosis) [14]
CAPROMAB PENDETIDE | 0 | 0 | 0 | 0 | 0 | 1 | 0 | < 1 | 0 | 0 | 0 | 0 | 0 | 0
COc1ccc2cc(CCC(C)=O)ccc2c1 [NABUMETONE] | 0 | 0 | 1 | 0 | 0 | 8 | 0 | 4.5 | 0 | 0 | 0 | 0 | 1 | 0
OCCN1CCN(CC/C=C2/c3ccccc3Sc3ccc(Cl)cc32)CC1 [ZUCLOPENTHIXOL] | 0 | 0 | 0 | 0 | 0 | 1 | 0 | 19 | 0 | 0 | 0 | 0 | 0 | 0
CC(CCC(=O)O)C1CC[C@H]2[C@@H]3CC[C@@H]4C[C@H](O)CC[C@]4(C)[C@H]3CC[C@]12C (stereo partly drawn) | 0 | 0 | 0 | 0 | 0 | 1 | 0 | 11.1 | 0 | 0 | 0 | 0 | 0 | 0
CNC(=O)[C@@H](NC(=O)[C@H](CC(C)C)[C@H](O)C(=O)NO)C(C)(C)C | 0 | 0 | 0 | 0 | 0 | 1 | 0 | 0 | 0 | 0 | 0 | 0 | 0 | 0
Cc1ccc2c(-c3ccccc3)nc(=O)n(C(C)C)c2c1 [PROQUAZONE] | 0 | 0 | 0 | 0 | 0 | 1 | 0 | 1.8 | 0 | 0 | 0 | 0 | 0 | 0
CN1CC[C@@H]2Nc3ccccc3[C@@H]2C1.Cl.Cl | 0 | 0 | 0 | 0 | 0 | 0 | 0 | 0 | 0 | 1 | 0 | 0 | 1 | 0
CC(=O)OCC1=C(C(=O)O)N2C(=O)[C@@H](NC(=O)CC#N)[C@H]2SC1 | 0 | 0 | 0 | 0 | 0 | 1 | 0 | 29.6 | 0 | 0 | 0 | 0 | 0 | 0
CC(C)(Oc1ccc(Cl)cc1)C(=O)NC(=O)NCN1CCOCC1 [PLAFIBRIDE] | 0 | 0 | 0 | 0 | 0 | 1 | 0 | 20 | 0 | 0 | 0 | 0 | 0 | 0
NCCC(O)(P(=O)(O)O)P(=O)(O)O [PAMIDRONIC ACID] | 0 | 0 | 0 | 0 | 0 | 3 | 0 | 2.7 | 0 | 0 | 0 | 0 | 0 | 0
CC(C)CN(C[C@@H](O)[C@H](Cc1ccccc1)NC(=O)O[C@H]1CCOC1)S(=O)(=O)c1ccc(N)cc1 | 0 | 10.7 | 3 | 0 | 0 | 0 | 0 | 0 | 0 | 0 | 0 | 0 | 3 | 0
CCC[C@@H]1C[C@@H](C(=O)N[C@@H]([C@H]2O[C@H](SC)[C@H](O)[C@@H](O)[C@H]2O)[C@@H](C)O)N(C)C1 [LINCOMYCIN] | 0 | 0 | 0 | 0 | 0 | 2 | 0 | 0 | 0 | 0 | 0 | 0 | 0 | 0
